Experimental data published in patent publication US20260250247A1, “NOVEL INDOLINE DERIVATIVE AND USE THEREOF” (CK REGEON INC., priority 2023, published 2026).

Tests used:
[1] = test system: mice induced with metabolic dysfunction-associated steatohepatitis (MASH); assay: Liver fibrosis score from collagen staining (Picrosirius red) in MASH mice; type: in vivo, C57BL/6N mice; conditions: 25 mg/kg/day orally for 4 weeks, mean±SD, normal group 0, MASH group 3.11
Experimental: (§1) Five-week-old wild-type male C57BL/6N mice were purchased from Orient Bio Co., Ltd. They were allowed to acclimate to the laboratory environment for one week. Mice weighing 18-20 g on average were used in the experiment. To ensure ethical and scientific validity and efficient management of animal experiments, the experiment was conducted with the approval of the Institutional Review Board (IACUC-A-202205-1472-01) of Severance Hospital, Yonsei University College of Medicine.
(§2) The mice were divided into a normal group (NCD) and a high-fat diet group (HFD). The normal group (NCD) was fed a normal chow diet (NCD, Teklad Global 18% protein rodent diet), and the high-fat diet group (HFD) was fed a high-fat diet (HFD, D12492) in which fat accounted for 60% of the total calories, for 8 weeks.
(§3) Mice induced with metabolic dysfunction-associated steatohepatitis (MASH) (hereinafter, referred to as MASH or MASH group) were prepared by administering CCl4 intraperitoneally twice a week for 4 weeks after feeding the high-fat diet (HFD) for 8 weeks. The […] was diluted with corn oil at a ratio of 1:19 and injected at a dosage of 2 mL/kg. The normal group (NOD) was administered the same volume of physiological saline.
(§4) The animals were divided into 7 groups, each with 10 animals.
After preparing the 7 groups, the animals were euthanized using carbon dioxide and the liver tissues were extracted. The extracted tissues were fixed in 4% neutral paraformaldehyde and embedded in paraffin to prepare sections. The paraffin sections were cut to 4-μm thickness, deparaffinized, and then rehydrated. The hydrated sections were stained with a Weigert's iron hematoxylin solution for 8 minutes and then with Picrosirius red for 1 hour. Collagen fibers were stained red and nuclei were stained blue. The sections were photographed using a bright-field microscope (Nikon TE-2000U).
The main mechanism of nonalcoholic fatty liver disease is the induction of hepatic stellate cell activation, which induces collagen production and leads to liver fibrosis due to collagen accumulation. From the result of collagen staining (Picrosirius red) for observing the total amount of collagen deposition in Test Example 3-6, the liver fibrosis score was analyzed. Stages 2 to 3 were diagnosed as nonalcoholic fatty liver disease (MASH) (M. Brunt et al., 2005).
All quantitative data are presented as mean±standard deviation (SD). In each experiment, all measurements were made at least three times, and data were analyzed using the two-tailed, unpaired Student's t test. P values of <0.05 were considered statistically significant.

[2] = test system: lipid droplets / PPARγ in liver tissue; assay: Liver Oil Red O staining and PPARγ immunohistochemistry in MASH mice; type: in vivo, C57BL/6N mice; conditions: 25 mg/kg/day orally for 4 weeks
Experimental: as §1, §2, §3, §4
It was investigated whether the accumulation of triglycerides in the liver is suppressed effectively. For this purpose, liver tissue was extracted from each group, and it was prepared into 10-μm thick cryosections, which were then stained with Oil Red O. Details are as follows. After preparing the 7 groups, the animals were euthanized using carbon dioxide and the liver tissues were extracted. A certain area of the extracted liver tissue was cryosectioned to 10 μm thickness, fixed in 4% neutral paraformaldehyde for 20 minutes at room temperature, and washed with 70% isopropanol (Duksan Pure Chemicals). After staining with the Oil Red O (Sigma-Aldrich) reagent for 20 minutes, the sections were washed thoroughly three times with distilled water. The tissue was counterstained with Mayer's hematoxylin. Then, Oil Red O staining images were visualized using a bright-field microscope (Nikon TE-2000U).
After preparing the 7 groups, the animals were sacrificed using carbon dioxide and the liver tissues were extracted. The extracted tissues were fixed in 4% neutral paraformaldehyde and embedded in paraffin to prepare sections. The paraffin sections were cut to 4-μm thickness, deparaffinized, and then rehydrated. For antigen exposure, slides were autoclaved in a 10 mM sodium citrate buffer (pH 6.0). To block endogenous peroxidase activity prior to peroxidase IHC analysis, the tissues were incubated with 0.3% H2O2 for 10 minutes. The incubated sections were treated with phosphate-buffered saline (PBS) containing 10% NGS and 0.3% Tween-20 for 1 hour at room temperature, treated with primary antibodies of anti-PPARγ (1:50; Abcam), and incubated overnight at 4° C.
The sections treated with the primary antibodies were washed with PBS and incubated with biotinylated anti-mouse (1:400; Dako) or anti-rabbit (1:400; Dako) secondary antibodies for 1 hour at room temperature. The sections incubated with the secondary antibodies were stained with 3,3′-diaminobenzidine (DAB; Dako) for 3-7 minutes and then counterstained with Mayer's haematoxylin. All incubations were performed in a humid chamber. After the staining, images were taken and analyzed using a bright-field microscope (Nikon TE-2000U).

3T3-L1 pre-adipocytes = assay: Inhibition of adipocyte differentiation and lipid accumulation, Oil Red O; type: cell-based; conditions: Mus musculus, 192 h; 3T3-L1, compound 1 μM, MDI-induced differentiation for 8 days, Oil Red O eluted, absorbance 544 nm; read-out: lipid accumulation rate
Experimental: 3T3-L1 cells were seeded in a 6-well plate at a density of […] cells per well. The cells were grown to 100% confluency in Dulbecco's modified Eagle's medium (DMEM) supplemented with 10% bovine calf serum (BCS; GIBCO). Two days after reaching 100% confluency, differentiation was induced with or without treatment with the indoline compound at a concentration of 1 μM in DMEM containing 10% fetal bovine serum (FBS; GIBCO) and MDI (520 μM methylisobutylxanthine (IBMX; Sigma-Aldrich), 1 μM dexamethasone (Sigma-Aldrich), and 5 μM insulin (GIBCO)). On day 3, the medium was replaced with DMEM containing 10% FBS and 5 μM insulin with or without the indoline compound, and then with a fresh identical medium every 2 days. After differentiation for 8 days, the culture medium was removed, and the cells were washed with PBS and then fixed with 10% formaldehyde for 1 hour. After removing the 10% formaldehyde, the cells were washed thoroughly with distilled water. After that, 60% isopropanol was added and immediately then removed. After washing with distilled water, lipid droplets were stained with an Oil Red O dye solution for 20 minutes and then washed with distilled water. The cells were counterstained with Mayer's hematoxylin. Oil Red O images were visualized using a bright-field microscope (Nikon TE-2000U). To quantify the accumulated lipids, Oil Red O was eluted by adding isopropanol, and absorbance was measured spectrophotometrically at 544 nm using a multi-plate reader.
As A3051 (KY19382) and A3334, self-developed and synthesized materials were used. As BIO, or GSK 3 Inhibitor IX, also known as 6-bromoindirubin-3′-oxime, HY-10580 was purchased commercially.
In FIG. 2, the undifferentiated group (Un Diff) refers to undifferentiated adipocytes, or preadipocytes that had not been induced to differentiate, and the differentiated group (Diff) refers to fully differentiated adipocytes.

[3] = target: CXXC5-Dvl interaction (PDZ domain of Dvl (dishevelled) protein / PTD-DBM-FITC); assay: CXXC5-Dvl binding inhibition, competition of PTD-DBM-FITC on plate-bound Dvl PDZ domain; conditions: purified Dvl PDZ domain 5 μg/mL, 10 μM PTD-DBM-FITC, compounds 0.001-100 μM, FITC fluorescence
Experimental: 5 μg/mL of the purified PDZ domain ofDvl (dishevelled) protein was attached to the bottom of a 96-well black immunoplate and left in a chamber at 4° C. for one day. The next day, each well was washed with PBS and 10 μM PTD-DBM-FITC was added. After incubation at room temperature for 3 hours, each well was washed with PBS. Each well was treated with the indoline derivatives at various concentrations (100, 10, 1, 0.1, 0.01, and 0.001 μM) in 100 μL of PBS. After washing with a buffer, fluorescence was measured by FITC using a microplate reader. A competition binding curve showing the degree of CXXC5-Dvl PPI inhibition was constructed using the GraphPad Prism software, and the IC50 value was calculated. […] CK090), and the intermediate compound 5-cyanoindirubin as controls.

IC50 [3]	Compound	Degree of liver fibrosis (fibrosis score) [1]	Degree of liver fibrosis (fibrosis score) ([1]; listed as CK004)	lipid droplet formation and lipid infiltration in liver, Oil Red O staining [2]	activity at 1 µM (3T3-L1 pre-adipocytes)
20.9 nM	CN1CCN(CCO/N=C2/C(=C3/C(=O)Nc4ccc(C#N)cc43)Nc3ccccc32)CC1 [Example 4, (2Z,3E)-3-((2-(4-methylpiperazin-1-yl)ethoxy)imino)-2′-oxo-[2,3′-biindolinylidene]-5′-carbonitrile]	0.67	0.67	a significant effect of inhibiting lipid infiltration at a level similar to that of the normal group (NCD)	26%
8.61 nM	N#Cc1ccc2c(c1)/C(=C1/Nc3ccccc3/C1=N\OCCN1CCOCC1)C(=O)N2 [Example 2, (2Z,3E)-3-((2-morpholinoethoxy)imino)-2′-oxo-[2,3′-biindolinylidene]-5′-carbonitrile]	1.85	–	the size and number of lipid droplets were significantly reduced	32.3%
5.54 nM	N#Cc1ccc2c(c1)/C(=C1/Nc3ccccc3/C1=N\OCCN1CCSCC1)C(=O)N2 [Example 3, (2Z,3E)-2′-oxo-3-((2-thiomorpholinoethoxy)imino)-[2,3′-biindolinylidene]-5′-carbonitrile]	1.56	–	a significant effect of inhibiting lipid infiltration at a level similar to that of the normal group (NCD)	28.9%
